For test [1], the system named is HCT116 xenograft tumors. The test is described as follows: HCT116 xenograft in NSG mice, systemic (i.v.) treatment. The test is classed as in vivo, mouse. The protocol:
(A) Growth kinetics of HCT116 tumors in NSG mice systemically treated with acet.-STAT3 peptides (1 mg/kg), with or without PS oligonucleotide conjugation, every other day (n = 5). SD is shown. Two-way ANOVA (Tukey’s multiple comparisons test) was used for analyzing the kinetics of tumor growth over the treatment period; ****P < 0.001. […] Lower 2 panels show input total STAT3 protein. […] Penetration of FAM-labeled PS-acet.-STAT3 peptide into tumors was also assessed by immunostaining followed by confocal imaging (second panel from top). The images are representative of 5 tumors per experimental group in A. Scale bars: 50 μm. Insets: original magnification, ×20. The graphs show the quantification for FAM and Ki-67 expression levels and of the mean vessel diameter (data include 5 fields of view per group). SD is shown. One-way ANOVA; ****P < 0.001; ***P < 0.005.
Mouse care and experimental procedures were performed under pathogen-free conditions in accordance with established institutional guidance and approved IACUC protocols from Research Animal Care Committee of the City of Hope. For s.c. tumor challenge, 5 × 10^6 HCT116 cells were injected into NSG mice from The Jackson Laboratory or animal resource core facility at the City of Hope. After tumors reached an average size of 80~100 mm^3, mice were locally or intravenously treated with 1 mg/kg of PO- or PS-peptides (Anaspec) every day or every other day. Control animals were treated with the equal volume of HBSS (Invitrogen, Thermo Fisher Scientific). Tumor growth was measured by a digital caliper every other day. To study the effects of the modified peptides at protein and gene levels, mice were euthanized 4–6 weeks after tumor injection. B16 melanoma lung metastasis was performed by injecting 0.5 × 10^6 B16 cells into bloodstream of C57BL/6 mice (The Jackson Laboratory). One day after tumor challenge, mice were treated intravenously (retro-orbitally) with 1 mg/kg of PO- or PS-acet.-STAT3, PS-unacet.-STAT3, or PS-STAT3-K685R peptides every other day until the endpoint as indicated. Control mice were treated with HBSS. Lungs were excised from the mice, and B16 nodules were visualized by gp100 staining. Lungs were then analyzed for immune responses by immunostaining followed by confocal imaging. For mouse PDAC model, 5 × 10^6 KPC mouse cells were mixed with Matrigel and subcutaneously injected into C57BL/6 mice (The Jackson Laboratory). […] Control animals were treated with the equal volume of HBSS (Invitrogen, Thermo Fisher Scientific). Tumor growth was measured by a digital caliper every other day. To study the effects of the modified peptides at protein and gene levels, mice were euthanized at the endpoint as indicated.

The subject of test [2] is HCT116 xenograft tumors. The test is described as follows: HCT116 xenograft in NSG mice, peritumoral treatment. It is filed as in vivo, mouse. Particulars: HCT116 s.c. in NSG mice, 1 mg/kg peritumoral every day, n = 4. The protocol: Mouse care and experimental procedures were performed under pathogen-free conditions in accordance with established institutional guidance and approved IACUC protocols from Research Animal Care Committee of the City of Hope. For s.c. tumor challenge, 5 × 10^6 HCT116 cells were injected into NSG mice from The Jackson Laboratory or animal resource core facility at the City of Hope. After tumors reached an average size of 80~100 mm^3, mice were locally or intravenously treated with 1 mg/kg of PO- or PS-peptides (Anaspec) every day or every other day. Control animals were treated with the equal volume of HBSS (Invitrogen, Thermo Fisher Scientific). Tumor growth was measured by a digital caliper every other day. […] Lungs were then analyzed for immune responses by immunostaining followed by confocal imaging. […] Tumor growth was measured by a digital caliper every other day. […]
(B) PS-acet.-STAT3 peptide downregulates STAT3 phosphorylation, assessed by Western blotting using tumor homogenates prepared from tumors shown in A.
(C) mRNA levels for CASP9, BIRC5 and BCL2L1 in the same tumor tissues described above were assessed by qRT-PCR. […]
(D) Treatments with PS-acet.-STAT3 peptide induced cell death, indicated by H&E staining (upper panel). […] Right panels represent quantification of Ki-67 protein levels and mean of vessel diameter (data include 5 fields of view per group). […]

“PDIPKEEAFGK685(Ac)YCRPESQEHPC-linker-T*C*C*A*T*G*A*G*C*T*T*C*C*T*G*A*T*G*C*T [PS-acet.-STAT3 peptide]”: the tumor growth entry is on record as “significantly reduced” in test [1] (HCT116 s.c. in NSG mice, 1 mg/kg i.v. every other day, n = 5) and “antitumor effects” in test [2]. For the same substance, the “STAT3 activation in tumor xenografts” value in test [1] (HCT116 tumor tissues, immunoprecipitation and Western blotting) is reported as “downregulated”. Further, in test [1] (HCT116 xenograft), the “cell death in tumor sections (H&E staining)” value is listed as “massive cell death”. For the same substance, in test [1] (HCT116 xenograft, IF and confocal), the “cell proliferation marker Ki-67 and tumor angiogenesis marker CD31 in tumor tissues” value is “significant reduction”. Further, in test [1] (HCT116 xenograft, qRT-PCR), the “proapoptotic genes (TP53, CASP9) in tumor tissues” value is recorded as “significantly upregulated”. In addition, the “expression of STAT3 target genes MMP-9 (MMP9) and BCL-XL (BCL2L1) in tumors” value in test [1] (HCT116 xenograft, qRT-PCR and Western blotting) is “significantly reduced”.

The values above are taken from publication PMC7934871 (JCI Insight, 2021).
